# Where “and” joins values, the source holds several entries; their conditions need not be identical. Equal entries are not always repeated.
# How the values were obtained:
# LC3s (LC3A, LC3B, LC3C) [1] = settings: recently identified LC3 binding sequence (Cheng et al., 2016; Olsvik et al., 2015); cited from earlier work
# GABARAP = assay: ITC binding to GABARAP; design: species or system human
# [2] = tested on: p62-positive puncta in COS7 cells; assay: p62-positive puncta in starved COS7 cells; assay type: cell-based; settings: starvation; for p62-positive puncta versus mCherry vector control: COS7 cells expressing mCherry-tagged peptide
# Description: We further quantified the level of p62, one of the best studied selective autophagy substrates, to monitor the autophagic flux in COS7 cells expressing various AnkB/G LIR peptides under the starvation condition (Klionsky et al., 2016; Mizushima et al., 2010). Upon autophagy induction, p62 forms aggregates via its LIR motif-mediated interactions to Atg8s and subsequent incorporation into autophagosomes (Bjorkoy et al., 2005; Pankiv et al., 2007). Only a relatively low and steady level of p62 aggregates is formed if autophagy flux is normal (i.e. p62-positive autophagosomes are steadily cleared by fusing with lysosomes; (Bjorkoy et al., 2005)), and this is indeed the case when cells were expressed with the mCherry vector control (FIG. 7F). […] This is consistent with a previous siRNA-based study showing that knockdown of LC3 but not GABARAP causes p62 accumulation in COS7 cells (Maruyama et al., 2014). Taken together, the above cell-based assays reinforce our earlier conclusion derived from biochemical and structural studies, that the AnkB WT peptide can function as potent autophagy inhibitor by targeting all members of the Atg8 family and the AnkG WT or ER peptides can selectively target the GABARAPs and spare the LC3s.
# LGG-2 = molecular target: T1, LGG-2 (Caenorhabditis elegans, UniProt Q23536); assay: ITC binding to purified LGG-2; design: species or system C. elegans
# T1 sequence (Q23536 1-130): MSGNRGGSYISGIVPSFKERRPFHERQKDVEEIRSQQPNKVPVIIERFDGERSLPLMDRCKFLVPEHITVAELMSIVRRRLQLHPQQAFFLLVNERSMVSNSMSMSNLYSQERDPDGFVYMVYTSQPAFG
# Description: (§1) C. elegans provides an ideal platform to study autophagy and especially to investigate roles of different members of Atg8 in autophagy, because worms contain both GABARAP and LC3 subfamily Atg8s and yet simple enough with one gene for each subfamily (worm lgg-1 and lgg-2 are […] of GABARAP and LC3, respectively). It has also been shown earlier on that lgg-1 and lgg-2 act non-redundantly in autophagy (Wu et al., 2015). Prior to performing autophagy assays in worms, we measured the bindings of various AnkB/G LIR peptides to purified LGG-1 and LGG-2 using the same method as we have described for FIGS. 1&3.
# LGG-1 = LGG-1 (Caenorhabditis elegans, UniProt Q09490); assay: ITC binding to purified LGG-1; design: species or system C. elegans
# Description: as §1
# [3] = tested on: LC3-positive puncta in COS7 cells; assay: LC3-positive puncta in starved COS7 cells; assay type: cell-based; settings: COS7 cells over-expressing mCherry-tagged peptide, nutrients deprivation
# Description: (§2) We used the well-established cultured COS7 cells for assessing autophagy inhibitions by the AnkB/G LIR peptides over-expressed in the cells. We quantified the numbers of endogenous LC3- or GABARAP-positive puncta, which represent LC3 or GABARAP-containing autophagic structures, as readouts to quantify autophagy inhibitions (Klionsky et al., 2016; Mizushima et al., 2010). After nutrients deprivation, obvious accumulations of LC3- or GABARAP-positive puncta could be observed in cells over-expressing mCherry only, indicating induction of autophagy by starvation (FIG. 6C6&E6). […] In contrast, expression of the mCherry-AnkB WR peptide had no impact on the LC3- or GABARAP-puncta numbers (i.e. with the same puncta numbers as expressing the mCherry vector control; FIG. 6C-F).
# [4] = tested on: GABARAP-positive puncta in COS7 cells; assay: GABARAP-positive puncta in starved COS7 cells; assay type: cell-based; settings: COS7 cells over-expressing mCherry-tagged peptide, nutrients deprivation
# Description: as §2
# SQST-1::GFP = SQST-1::GFP aggregate accumulation in C. elegans expressing the peptides; assay type: in vivo
# Description: We next determined whether the AnkB WT peptide blocks autophagy in C. elegans. Autophagy is required for degradation of a variety of protein substrates, including the C. elegans p62 homolog SQST-1 during development (Tian et al., 2010). In the wild type animals, SQST-1::GFP is weakly expressed and diffusely localized in the cytoplasm, while numerous SQST-1 aggregates accumulate in autophagy mutants (Tian et al., 2010). The AnkB WT peptide fused with the Cherry reporter (Cherry::AnkB WT) or Cherry::AnkB WR was expressed under the control of the nfya-1 promoter, which is expressed ubiquitously from the embryonic to adult stages. The expression plasmids were injected into animals carrying integrated SQST-1::GFP reporter (bpIs151) and transgenic lines were obtained and analyzed.
# Similarly, we also tested the blocking effect of AnkG peptides in C. elegans. […] This observation is somewhat different from that in mammalian heterologous cells. This may be explained by the different roles of the two families in different organisms. In mammal, p62 degradation is dependent on LC3 but not GABARAP (Maruyama et al., 2014), so blocking GABARAP binding has minimal effect on p62 degradation. However, in C. elegans, LGG-1 acts upstream to LGG-2 (Manil-Segalen et al., 2014; Wu et al., 2015), so blocking either of them will lead to defect in SQST-1 degradation.
# Although a large collection of autophagy mutants were isolated from genetic screens (Tian et al., 2010), assays to inhibit autophagy activity in a spatiotemporal manner are not available. We investigated whether the AnkB peptide can block autophagy in a tissue- and temporal-specific manner. The AnkB peptide was expressed under the control of tissue-specific promoters, including the promoter of myo-3 for body wall muscle cells, y37A1B.5 for hypodermal cells and vha-6 for intestinal cells. The expression constructs were injected into animals carrying the corresponding tissue-specific SQST-1::GFP expression integrated lines.
# We also examined whether the AnkB peptide can impair autophagy in a temporal control manner. The expression of AnkB WT was driven by the promoter of col-19, which is expressed in hypodermal cells from the young adult stage onwards.
# LC3s (LC3A, LC3B, LC3C) [5] = assay: ITC binding to LC3s; design: species or system human; settings: LC3A, LC3B, LC3C
# [6] = tested on: LC3s (LC3A, LC3B, LC3C) (Homo sapiens); assay: ITC binding to LC3s
# C. elegans [7] = assay: C. elegans life span; assay type: in vivo
# Description: Autophagy is known to regulate the adult worm aging process. […] The autophagy defect caused by AnkB was weaker than that in autophagy mutants.
# [8] = tested on: GFP-RFP-LC3B puncta in COS7 cells; assay: Autophagosome marker co-localization in COS7 cells co-transfected with GFP-RFP-LC3B; assay type: cell-based; settings: Myc tagged peptide, low expression level
# Description: We next tried to explore the potential applications of the Ank-derived peptides as autophagosome markers. The COS7 cells were co-transfected with GFP-RFP-LC3B and Myc tagged AnkB WT or AnkB WR peptides. […] LC3B are mainly localized on the autophagosome as vast majority of the puncta are both green and red (FIG. 11A).
# C. elegans [9] = assay: C. elegans hatching and development; assay type: in vivo; settings: Pnfya-1::Cherry fusion
# Description: Autophagy plays critical roles in various physiological processes occurring during development or in adult C. elegans (Zhang et al., 2015). Fewer autophagy mutants develop into larvae. […] 60.8% embryos expressing the AnkB WT peptide hatched, compared to 96.9% of embryos expressing AnkB WR (FIG. 8G). Autophagy mutants also grow slowly. […] Thus, the AnkB WT peptide blocks autophagy during C. elegans development.
# [10] = tested on: all members of the Atg8 family; assay: ITC binding to all members of the Atg8 family; design: species or system human
# Description: The 440 kD AnkB and 480 kD AnkG both contain a giant exon encoding several thousand amino acid residues, though the homology between the two giant exon coding sequences is very limited. The 440 kD AnkB is also a neuronal specific isoform, and is mainly expressed in unmyelinated/premyelinated axons.
# Thus, we will not describe the overall structures of the two complexes any further, except to note that the AnkB LIR also contains a well-defined C-helix extension following the LIR core motif.
# Sequence of LGG-1 (Q09490 1-116 limits assumed): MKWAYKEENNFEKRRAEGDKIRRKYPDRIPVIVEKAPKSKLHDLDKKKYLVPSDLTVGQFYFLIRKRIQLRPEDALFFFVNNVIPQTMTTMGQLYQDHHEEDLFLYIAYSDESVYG
molecule,measurement,setting,value
"FYCO1 LIR: recently identified LC3 binding sequence from FYCO1 with a one-turn helix extension (DDAVFDIITDEELCQIQESGSSLPET; FYCO1 recombinant human sequence, prepared in lab)",binding to LC3 compared with bindings of AnkB LIR to Atg8,"LC3s (LC3A, LC3B, LC3C) [1]",significantly weaker
CC[C@H](C)[C@H](NC(=O)[C@H](CCC(=O)O)NC(=O)[C@H](CCC(=O)O)NC(=O)[C@H](CO)NC(=O)[C@H](CO)NC(=O)[C@H](Cc1ccccc1)NC(=O)[C@H](CCC(=O)O)NC(=O)[C@@H](NC(=O)[C@H](Cc1c[nH]c2ccccc12)NC(=O)[C@H](CC(=O)O)NC(=O)[C@H](CC(=O)O)NC(=O)[C@H](CCC(=O)O)NC(=O)[C@@H]1CCCN1)[C@@H](C)O)C(=O)N[C@@H](CCCNC(=N)N)C(=O)N[C@@H](CCC(=O)O)C(=O)N[C@@H](C)C(=O)N[C@@H](CCCNC(=N)N)C(=O)N[C@@H](CCC(N)=O)C(=O)N[C@@H](C)C(=O)N[C@@H](C)C(=O)N[C@@H](C)C(=O)N[C@@H](CO)C(=O)N[C@@H](Cc1c[nH]cn1)C(=O)N[C@@H](C)C(=O)N1CCC[C@H]1C(=O)N[C@@H](CO)C(=O)O [AnkG LIR],binding to GABARAP stronger than almost all reported bindings between LIR motifs and Atg8s,GABARAP; ITC,~1000 fold
same,Kd,GABARAP; isothermal titration calorimetry (ITC),~2.6 nM and 2.6 nM
same,p62-positive puncta versus mCherry vector control,[2],obviously increased
same,p62 puncta increase compared with AnkB WT peptide,[2]; COS7 cells,significantly lower
same,weaker affinity towards LGG-2 than LGG-1,LGG-2,about 130 fold
same,binding to LGG-1 (in words),LGG-1,binds strongly
same,LC3-positive puncta number,[3],only modestly reduced
same,GABARAP-positive puncta number,[4],potently inhibited
same,SQST-1::GFP aggregates,"SQST-1::GFP; Cherry fusion, hyp7 promoter, epidermis, embryonic to adult stages",caused accumulation of SQST-1::GFP aggregates
same,SQST-1::GFP aggregates,"SQST-1::GFP; Phyp7::mCherry::AnkG peptides, hypodermis, L4 larvae",a large number of SQST-1::GFP aggregates accumulate
same,SQST-1::GFP aggregates,"SQST-1::GFP; mCherry::AnkG peptides, embryonic stage (FIG. 10B-D)",accumulation of the SQST-1::GFP aggregates
same,Kd values of binding to the LC3s,"LC3s (LC3A, LC3B, LC3C) [5]",hundreds to thousands
same,binding to LC3 (in words),[6],much weaker affinity than to GABARAPs
"AnkB W1592R: AnkB LIR with Trp1592 substituted by Arg; control for functional studies (VEEERVIVSDEEIEEARQKAPLEITEY; AnkB W1592R human recombinant peptide, prepared in the lab)",p62-positive puncta versus mCherry vector control,[2],neither of the AnkB/G WR peptides could induce p62-positive puncta increase
same,Median lifespan,C. elegans [7]; Pmyo-3::ch:: fusion (muscle),18.72 days
same,Median lifespan,C. elegans [7]; Pnfya-1::ch:: fusion (ubiquitous),19.15 days
same,Median lifespan,C. elegans [7]; Pvha-6::ch:: fusion (intestine),18.13 days
same,Median lifespan,C. elegans [7]; Py37a1b.5::ch:: fusion (hypodermal cells),18.63 days
same,binding to LGG-2 (in words),LGG-2; purified LGG-2,eliminated the bindings
same,localization relative to GFP-RFP-LC3B dual-color (autophagosome) puncta,[8],diffused in the cells
same,embryos hatched (hatch rate),C. elegans [9],96.9%
same,binding to LGG-1 (in words),LGG-1,eliminated the bindings
same,LC3-positive puncta number,[3],no impact
same,GABARAP-positive puncta number,[4],no impact
same,SQST-1::GFP aggregates,"SQST-1::GFP; Cherry fusion, FIG. 8, embryo",no SQST-1::GFP aggregates
same,SQST-1::GFP aggregates,"SQST-1::GFP; Cherry fusion, FIG. 8, larvae",no SQST-1::GFP aggregates
same,SQST-1::GFP aggregates,"SQST-1::GFP; Cherry fusion, nfya-1 promoter (ubiquitous), multiple tissues, embryonic to adult stages",no SQST-1::GFP aggregates were formed
same,SQST-1::GFP aggregates,"SQST-1::GFP; mCherry fusion, hypodermal cells, embryo (FIG. 9)",no SQST-1::GFP aggregates
same,SQST-1::GFP aggregates,"SQST-1::GFP; mCherry fusion, hypodermis, L4 larvae (FIG. 9)",no SQST-1::GFP aggregates
same,SQST-1::GFP aggregates,"SQST-1::GFP; myo-3 promoter, muscle cells, L4 larvae",no SQST-1::GFP aggregates
same,SQST-1::GFP aggregates,"SQST-1::GFP; myo-3 promoter, muscle, embryo",no SQST-1::GFP
same,SQST-1::GFP aggregates,"SQST-1::GFP; tissue-specific promoters myo-3, y37A1B.5, vha-6, embryonic to adult stages",no accumulation
same,SQST-1::GFP aggregates,"SQST-1::GFP; vha-6 promoter, intestine cells, embryo",no SQST-1::GFP aggregates
same,SQST-1::GFP aggregates,"SQST-1::GFP; vha-6 promoter, intestine cells, larvae (FIG. 10S, 10T)",no SQST-1::GFP aggregates
same,binding to Atg8 family members (in words),[10],dramatically decreased
